Broadly, the IC50 is the concentration at which inhibition is half-maximal. High values mean a need for much substance, low ones inhibition by little substance.

The results in this text go back to BindingDB's records for doi:10.1016/j.bmcl.2004.03.046 (Seoul National University, 2004).

SMILES strings stand for the structures.

This test concerns the target Tyrosinase (Agaricus bisporus). Kind of test: Inhibitory activity against mushroom tyrosinase.
As for `O=C(O)C[C@H](NC(=O)[C@H](Cc1c[nH]c2ccccc12)NC(=O)[C@H](Cc1ccccc1)NC(=O)OCc1cc(=O)c(O)co1)C(=O)O` [2-[(S)-2-[(S)-2-(5-Hydroxy-4-oxo-4H-pyran-2-ylmethoxycarbonylamino)-3-phenyl-propionylamino]-3-(1H-indol-3-yl)-propionylamino]-succinic acid], the half-inhibitory concentration (IC50) amounted to 2130 nM.

In the case of `O=C(N[C@@H](Cc1ccccc1)C(=O)N[C@@H](Cc1c[nH]c2ccccc12)C(=O)N[C@@H](Cc1c[nH]c2ccccc12)C(=O)O)OCc1cc(=O)c(O)co1` [2-[(S)-2-[(S)-2-(5-Hydroxy-4-oxo-4H-pyran-2-ylmethoxycarbonylamino)-3-phenyl-propionylamino]-3-(1H-indol-3-yl)-propionylamino]-3-(1H-indol-3-yl)-propionic acid], the IC50 was determined as 6170 nM.

`O=C(N[C@@H](Cc1ccccc1)C(=O)N[C@@H](Cc1ccccc1)C(=O)N[C@@H](Cc1ccc(O)cc1)C(=O)O)OCc1cc(=O)c(O)co1` [(S)-2-{(S)-2-[(S)-2-(5-Hydroxy-4-oxo-4H-pyran-2-ylmethoxycarbonylamino)-1-oxo-3-phenyl-propylamino]-3-phenyl-propionylamino}-3-(4-hydroxy-phenyl)-propionic acid] had an IC50 of 330 nM.

For the molecule `O=C(N[C@@H](Cc1ccccc1)C(=O)N[C@@H](Cc1ccc(O)cc1)C(=O)N[C@@H](Cc1ccc(O)cc1)C(=O)O)OCc1cc(=O)c(O)co1` [(S)-2-[(S)-2-[(S)-2-(5-Hydroxy-4-oxo-4H-pyran-2-ylmethoxycarbonylamino)-1-oxo-3-phenyl-propylamino]-3-(4-hydroxy-phenyl)-propionylamino]-3-(4-hydroxy-phenyl)-propionic acid], the midpoint of inhibition, the IC50, lay at 390 nM.

Consider `O=C(N[C@@H](Cc1ccccc1)C(=O)N[C@@H](Cc1c[nH]c2ccccc12)C(=O)N[C@@H](Cc1ccccc1)C(=O)O)OCc1cc(=O)c(O)co1` [2-[(S)-2-[(S)-2-(5-Hydroxy-4-oxo-4H-pyran-2-ylmethoxycarbonylamino)-3-phenyl-propionylamino]-3-(1H-indol-3-yl)-propionylamino]-3-phenyl-propionic acid], for which the IC50 was determined as 4480 nM.

The molecule `CC[C@H](C)[C@H](NC(=O)[C@H](Cc1c[nH]c2ccccc12)NC(=O)[C@H](Cc1ccccc1)NC(=O)OCc1cc(=O)c(O)co1)C(=O)O` [2-[(S)-2-[(S)-2-(5-Hydroxy-4-oxo-4H-pyran-2-ylmethoxycarbonylamino)-3-phenyl-propionylamino]-3-(1H-indol-3-yl)-propionylamino]-3-(S)-methyl-pentanoic acid] had a half-inhibitory concentration (IC50) of 2180 nM.
